Measured values: US8673950B2, “Dihydrooxazol-2-amine derivatives” (Hoffmann-LaRoche Inc., priority 2010, dated 2014)
Structures can show the parent of a compound that is named as a salt.

Experiments:
mouse TAAR1 = mouse TAAR1 (Mus musculus (Mouse), UniProt Q923Y8); test: Radioligand binding assay on mouse TAAR1; conditions: mouse TAAR1, membranes of stably transfected HEK-293 cells; first value of cell mouse/rat
Experimental: (§1) Construction of TAAR Expression Plasmids and Stably Transfected Cell Lines
(§2) For the construction of expression plasmids the coding sequences of human, rat and mouse TAAR 1 were amplified from genomic DNA essentially as described by Lindemann et al.. The Expand High Fidelity PCR System (Roche Diagnostics) was used with 1.5 mM Mg^2+ and purified PCR products were cloned into pCR2.1-TOPO cloning vector (Invitrogen) following the instructions of the manufacturer. PCR products were subcloned into the pIRESneo2 vector (BD Clontech, Palo Alto, Calif.), and expression vectors were sequence verified before introduction in cell lines.
(§3) HEK293 cells (ATCC # CRL-1573) were cultured essentially as described by Lindemann et al. (2005). For the generation of stably transfected cell lines HEK293 cells were transfected with the pIRESneo2 expression plasmids containing the TAAR coding sequences (described above) with Lipofectamine 2000 (Invitrogen) according to the instructions of the manufacturer, and 24 hrs post transfection the culture medium was supplemented with 1 mg/ml G418 (Sigma, Buchs, Switzerland). After a culture period of about 10 d clones were isolated, expanded and tested for responsiveness to trace amines (all compounds purchased from Sigma) with the cAMP Biotrak Enzyme immunoassay (EIA) System (Amersham) following the non-acetylation EIA procedure provided by the manufacturer.
Radioligand Binding Assay on Mouse TAAR1
(§4) Membrane Preparation and Radioligand Binding.
(§5) HEK-293 cells stably expressing mouse TAAR1 were maintained at 37° C. and 5% CO2 in DMEM high glucose medium, containing fetal calf serum (10%, heat inactivated for 30 min at 56° C.), penicillin/streptomycin (1%), and 375 μg/ml geneticin (Gibco). Cells were released from culture flasks using trypsin/EDTA, harvested, washed twice with ice-cold PBS (without Ca^2+ and Mg^2+), pelleted at 1'000 rpm for 5 min at 4° C., frozen and stored at −80° C. Frozen pellets were suspended in 20 ml HEPES-NaOH (20 mM, pH 7.4) containing 10 mM EDTA and homogenized with a Polytron (PT 6000, Kinematica) at 14'000 rpm for 20 s. The homogenate was centrifuged at 48'000×g for 30 min at 4° C. Subsequently, the supernatant was removed and discarded, and the pellet resuspended in 20 ml HEPES-NaOH (20 mM, pH 7.4) containing 0.1 mM EDTA using the Polytron (20 s at 14'000 rpm). This procedure was repeated and the final pellet resuspended in HEPES-NaOH containing 0.1 mM EDTA and homogenized using the Polytron. Typically, aliquots of 2 ml membrane portions were stored at −80° C. With each new membrane batch the dissociation constant (Kd) was determined via a saturation curve. The TAAR1 radioligand ^3[H]-(S)-4-[(ethyl-phenyl-amino)-methyl]-4,5-dihydro-oxazol-2-ylamine (described in WO 2008/098857) was used at a concentration equal to the calculated Kd value, that was usually around 0.7 nM, resulting in the binding of approximately 0.5% of the radioligand and a specific binding representing approximately 70% of the total binding. Nonspecific binding was defined as the amount of ^3[H]-(S)-4-[(ethyl-phenyl-amino)-methyl]-4,5-dihydro-oxazol-2-ylamine bound in the presence of 10 μM unlabeled ligand. All compounds were tested at a broad range of concentrations (10 μM to 10 μM) in duplicates. […] The 96 deep well plates were incubated for 1 hr at 4° C. Incubations were terminated by rapid filtration through Unifilter-96 plates (Packard Instrument Company) and glass filters GF/C (Perkin Elmer) presoaked for 1 hr in polyethylenimine (0.3%) and washed 3 times with 1 ml of cold binding buffer. After addition of 45 μl of Microscint 40 (PerkinElmer) the Unifilter-96 plate was sealed and after 1 hr the radioactivity counted using a TopCount Microplate Scintillation Counter (Packard Instrument Company).

rat TAAR1 = rat TAAR1 (Rattus norvegicus (Rat), UniProt Q923Y9); test: Radioligand binding assay on rat TAAR1; conditions: rat TAAR1, membranes of stably transfected HEK-293 cells; second value of cell mouse/rat
Experimental: as §1, §2, §3
Radioligand Binding Assay on Rat TAAR1
as §4
as §5, with “expressing rat” for “expressing mouse”, “curve. […]” for “curve. The TAAR1 radioligand ^3[H]-(S)-4-[(ethyl-phenyl-amino)-methyl]-4,5-dihydro-oxazol-2-ylamine (described in WO 2008/098857) was used at a concentration equal to the calculated Kd value, that was usually around 0.7 nM, resulting in the binding of approximately 0.5% of the radioligand and a specific binding representing approximately 70% of the total binding.”, “(10 pM” for “(10 μM”

Sequence of rat TAAR1 (Q923Y9 whole entry): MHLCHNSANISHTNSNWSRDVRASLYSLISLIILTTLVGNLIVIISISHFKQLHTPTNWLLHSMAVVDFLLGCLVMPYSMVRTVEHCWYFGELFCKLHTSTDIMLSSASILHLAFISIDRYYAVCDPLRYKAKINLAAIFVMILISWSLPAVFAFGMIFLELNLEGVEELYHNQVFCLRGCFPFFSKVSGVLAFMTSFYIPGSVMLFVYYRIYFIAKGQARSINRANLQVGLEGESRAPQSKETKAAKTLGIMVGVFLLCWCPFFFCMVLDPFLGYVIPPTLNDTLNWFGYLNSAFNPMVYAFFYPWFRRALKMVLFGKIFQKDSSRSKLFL
Sequence of mouse TAAR1 (Q923Y8 whole entry): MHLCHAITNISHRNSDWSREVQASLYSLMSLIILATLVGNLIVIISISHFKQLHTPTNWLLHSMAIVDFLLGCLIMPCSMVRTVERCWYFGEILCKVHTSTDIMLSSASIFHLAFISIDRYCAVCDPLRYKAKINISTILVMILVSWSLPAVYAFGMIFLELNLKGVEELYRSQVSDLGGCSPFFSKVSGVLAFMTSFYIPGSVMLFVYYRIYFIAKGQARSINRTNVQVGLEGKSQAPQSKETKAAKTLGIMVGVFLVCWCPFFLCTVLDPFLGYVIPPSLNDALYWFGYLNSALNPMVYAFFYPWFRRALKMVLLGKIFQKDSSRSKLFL

Structure (SMILES) | Ki (mouse TAAR1) | Ki (rat TAAR1)
Cc1cccc(Nc2ccc(CC[C@H]3COC(N)=N3)cc2)n1 [Example 25, {4-[2-((S)-2-Amino-4,5-dihydro-oxazol-4-yl)-ethyl]-phenyl}-(6-methyl-pyridin-2-yl)-amine] | 0.0035 µM | 0.0007 µM
NC1=N[C@@H](CCc2ccc(Nc3cccc(C(F)(F)F)n3)cc2)CO1 [Example 26, {4-[2-((S)-2-Amino-4,5-dihydro-oxazol-4-yl)-ethyl-]-phenyl}-(6-trifluoromethyl-pyridin-2-yl)-amine] | 0.0007 µM | 0.0008 µM
NC1=N[C@@H](CCc2ccc(Nc3cncc(Cl)n3)cc2)CO1 [Example 27, {4-[2-((S)-2-Amino-4,5-dihydro-oxazol-4-yl)-ethyl]-phenyl}-(6-chloro-pyrazin-2-yl)-amine] | 0.0182 µM | 0.004 µM
NC1=N[C@@H](CCc2ccc(Nc3cccc(Cl)n3)cc2)CO1 [Example 28, {4-[2-((8)-2-Amino-4,5-dihydro-oxazol-4-yl)-ethyl]-phenyl}-(6-chloro-pyridin-2-yl)-amine] | 0.001 µM | 0.0005 µM
Cc1ccc(Nc2ccc(CC[C@H]3COC(N)=N3)cc2)nc1 [Example 29, {4-[2-((8)-2-Amino-4,5-dihydro-oxazol-4-yl)-ethyl]-phenyl}-(5-methyl-pyridin-2-yl)-amine] | 0.0306 µM | 0.0035 µM
COc1ccc(Nc2ccc(CC[C@H]3COC(N)=N3)cc2)nc1 [Example 30, {4-[2-((S)-2-Amino-4,5-dihydro-oxazol-4-yl)-ethyl]-phenyl}-(5-methoxy-pyridin-2-yl)-amine] | 0.134 µM | 0.0083 µM
N#Cc1cncc(Nc2ccc(CC[C@H]3COC(N)=N3)cc2)n1 [Example 31, 6-{4-[2-((S)-2-Amino-4,5-dihydro-oxazol-4-yl)-ethyl]-phenylamino}-pyrazine-2-carbonitrile] | 0.0133 µM | 0.0059 µM
NC1=N[C@@H](CCc2ccc(Nc3cc(Cl)ncn3)cc2)CO1 [Example 32, {4-[2-((S)-2-Amino-4,5-dihydro-oxazol-4-yl)-ethyl]-phenyl}-(6-chloro-pyrimidin-4-yl)-amine] | 0.0019 µM | 0.0008 µM
COc1cc(Nc2ccc(CC[C@H]3COC(N)=N3)cc2)ncn1 [Example 33, {4-[2-((S)-2-Amino-4,5-dihydro-oxazol-4-yl)-ethyl]-phenyl}-(6-methoxy-pyrimidin-4-yl)-amine] | 0.0096 µM | 0.0023 µM
Cc1nccc(Nc2ccc(CC[C@H]3COC(N)=N3)cc2)n1 [Example 34, {4-[2-((S)-2-Amino-4,5-dihydro-oxazol-4-yl)-ethyl]-phenyl}-(2-methyl-pyrimidin-4-yl)-amine] | 0.0387 µM | 0.0026 µM
NC1=N[C@@H](CCc2ccc(Nc3ccncn3)cc2)CO1 [Example 35, (S)-4-(4-(Pyrimidin-4-ylamino)phenethyl)-4,5-dihydrooxazol-2-amine hydrochloride] | 0.0551 µM | 0.0023 µM
COc1ccnc(Nc2ccc(CC[C@H]3COC(N)=N3)cc2)n1 [Example 36, {4-[2-((S)-2-Amino-4,5-dihydro-oxazol-4-yl)-ethyl]-phenyl}-(4-methoxy-pyrimidin-2-yl)-amine] | 0.0047 µM | 0.0004 µM
CCc1cnc(Nc2ccc(CC[C@H]3COC(N)=N3)cc2)nc1 [Example 37, {4-[2-((S)-2-Amino-4,5-dihydro-oxazol-4-yl)-ethyl]-phenyl}-(5-ethyl-pyrimidin-2-yl)-amine] | 0.0013 µM | 0.0012 µM
COc1cnc(Nc2ccc(CC[C@H]3COC(N)=N3)cc2)nc1 [Example 38, {4-[2-((8)-2-Amino-4,5-dihydro-oxazol-4-yl)-ethyl]-phenyl}-(5-methoxy-pyrimidin-2-yl)-amine] | 0.007 µM | 0.0007 µM
N#Cc1cnc(Nc2ccc(CC[C@H]3COC(N)=N3)cc2)cn1 [Example 39, 5-{4-[2-((8)-2-Amino-4,5-dihydro-oxazol-4-yl)-ethyl]-phenylamino}-pyrazine-2-carbonitrile] | 0.0128 µM | 0.0043 µM
NC1=N[C@@H](CCc2ccc(Nc3nccc(C(F)(F)F)n3)cc2)CO1 [Example 40, {4-[2-((S)-2-Amino-4,5-dihydro-oxazol-4-yl)-ethyl]-phenyl}-(4-trifluoromethyl-pyrimidin-2-yl)-amine] | 0.0024 µM | 0.001 µM
NC1=N[C@@H](CCc2ccc(Nc3nccnc3Cl)cc2)CO1 [Example 41, {4-[2-((S)-2-Amino-4,5-dihydro-oxazol-4-yl)-ethyl]-phenyl}-(3-chloro-pyrazin-2-yl)-amine] | 0.0593 µM | 0.0031 µM
NC1=N[C@@H](CCc2ccc(Nc3cc(C(F)(F)F)cc(Cl)n3)cc2)CO1 [Example 42, {4-[2-((S)-2-Amino-4,5-dihydro-oxazol-4-yl)-ethyl]-phenyl}-(6-chloro-4-trifluoromethyl-pyridin-2-yl)-amine] | 0.0008 µM | 0.0016 µM
Cc1cncc(Nc2ccc(CC[C@H]3COC(N)=N3)cc2)n1 [Example 43, {4-[2-((S)-2-Amino-4,5-dihydro-oxazol-4-yl)-ethyl]-phenyl}-(6-methyl-pyrazin-2-yl)-amine] | 0.107 µM | 0.0046 µM
COc1nc(Cl)cc(Nc2ccc(CC[C@H]3COC(N)=N3)cc2)n1 [Example 44, {4-[2-((S)-2-Amino-4,5-dihydro-oxazol-4-yl)-ethyl]-phenyl}-(6-chloro-2-methoxy-pyrimidin-4-yl)-amine] | 0.001 µM | 0.0011 µM
CSc1ccnc(Nc2ccc(CC[C@H]3COC(N)=N3)cc2)n1 [Example 45, {4-[2-((S)-2-Amino-4,5-dihydro-oxazol-4-yl)-ethyl]-phenyl}-(4-methylsulfanyl-pyrimidin-2-yl)-amine] | 0.0077 µM | 0.0013 µM
Cc1cnc(Nc2ccc(CC[C@H]3COC(N)=N3)cc2)nc1 [Example 46, {4-[2-((S)-2-Amino-4,5-dihydro-oxazol-4-yl)-ethyl]-phenyl}-(5-methyl-pyrimidin-2-yl)-amine] | 0.0105 µM | 0.0012 µM
